Eleven molecules from patent publication US7956077B2, “2-{-3,′2-(phenyl)-oxazol-4-ylmethoxyl-cyclohexyl methoxy}-propionic acid derivatives used as peroxisome proliferator-activated receptor (PPAR) ligands for the treatment of hyperlipidemia and diabetes” (Sanofi-Aventis Deutschland GmbH, priority 2004, dated 2011) can be followed below.

For orientation: EC50 means the concentration that produces a half-maximal response. Read a low EC50 as an effect from little substance.

Where “and” joins values, the source holds several entries; their conditions need not be identical. Equal entries are not always repeated.

For one test, the target named is T1, human PPARalpha (Homo sapiens, UniProt Q07869).
T1 construct: human PPARalpha receptor (amino acids S167-Y468); expressed in transfected cells; host or cells: HEK cells, stably transfected (pcDNA3 construct)
T1 sequence (Q07869 167-468): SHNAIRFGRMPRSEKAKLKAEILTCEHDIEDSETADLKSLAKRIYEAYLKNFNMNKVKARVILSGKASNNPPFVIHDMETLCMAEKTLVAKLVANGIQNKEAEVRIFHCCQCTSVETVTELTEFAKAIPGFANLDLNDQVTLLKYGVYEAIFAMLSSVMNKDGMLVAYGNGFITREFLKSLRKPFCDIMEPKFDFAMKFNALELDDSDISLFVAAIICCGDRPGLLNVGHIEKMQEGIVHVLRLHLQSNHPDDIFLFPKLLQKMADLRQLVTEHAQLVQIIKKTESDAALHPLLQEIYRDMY
The test can be described thus: Cellular PPARalpha assay (stably transfected HEK luciferase reporter cell line). Format: cell-based. The conditions noted are these: PPARalpha reporter cell line (HEK, GR-GAL4-humanPPARalpha-LBD), 24 h incubation. On the procedure: Determination of EC50 Values of PPAR Agonists in the Cellular PPARalpha Assay
The potency of substances which bind to human PPARalpha and activate it in an agonistic manner is analyzed using a stably transfected HEK cell line (HEK=human embryo kidney) which is referred to here as PPARalpha reporter cell line. It contains two genetic elements, a luciferase reporter element (pdeltaM-GAL4-Luc-Zeo) and a PPARalpha fusion protein (GR-GAL4-humanPPARalpha-LBD) which mediates expression of the luciferase reporter element depending on a PPARalpha ligand. The stably and constitutively expressed fusion protein GR-GAL4-humanPPARalpha-LBD binds in the cell nucleus of the PPARalpha reporter cell line via the GAL4 protein portion to the GAL4 DNA binding motifs 5′-upstream of the luciferase reporter element which is stably integrated in the genome of the cell line. There is only little expression of the luciferase reporter gene without addition of a PPARalpha ligand if fatty acid-depleted fetal calf serum (cs-FCS) is used in the assay. PPARalpha ligands bind and activate the PPARalpha fusion protein and thereby bring about expression of the luciferase reporter gene. The luciferase which is formed can be detected by means of chemiluminescence via an appropriate substrate.
Construction of the Cell Line
The PPARalpha reporter cell line was prepared in two steps. Firstly, the luciferase reporter element was constructed and stably transfected into HEK cells. For this purpose, five binding sites of the yeast transcription factor GAL4 (in each case 5′-CGGAGTACTGTCCTCCGAG-3′) were cloned in 5′-upstream of a 68 bp-long minimal MMTV promoter (Genbank Accession # V01175). The minimal MMTV promoter section contains a CCAAT box and a TATA element in order to enable efficient transcription by RNA polymerase II. The cloning and sequencing of the GAL4-MMTV construct took place in analogy to the description of Sambrook J. et. al. (Molecular cloning, Cold Spring Harbor Laboratory Press, 1989). Then the complete Photinus pyralis luciferase gene (Genbank Accession # M15077) was cloned in 3′-downstream of the GAL4-MMTV element. After sequencing, the luciferase reporter element consisting of five GAL4 binding sites, MMTV promoter and luciferase gene was subcloned into a plasmid which confers zeozin resistance in order to obtain the plasmid pdeltaM-GAL4-Luc-Zeo. This vector was transfected into HEK cells in accordance with the statements in Ausubel, F. M. et al. (Current protocols in molecular biology, Vol. 1-3, John Wiley & Sons, Inc., 1995).
In a second step, the PPARalpha fusion protein (GR-GAL4-humanPPARalpha-LBD) was introduced into the stable cell clone described. For this purpose, initially the cDNA coding for the N-terminal 76 amino acids of the glucocorticoid receptor (Genbank Accession # P04150) was linked to the cDNA section coding for amino acids 1-147 of the yeast transcription factor GAL4 (Genbank Accession # P04386). The cDNA of the ligand-binding domain of the human PPARalpha receptor (amino acids S167-Y468; Genbank Accession # S74349) was cloned in at the 3′ end of this GR-GAL4 construct. The fusion construct prepared in this way (GR-GAL4-humanPPARalpha-LBD) was subcloned into the plasmid pcDNA3 (from Invitrogen) in order to enable constitutive expression therein by the cytomegalovirus promoter. This plasmid was linearized with a restriction endonuclease and stably transfected into the previously described cell clone containing the luciferase reporter element. The finished PPARalpha reporter cell line which contains a luciferase reporter element and constitutively expresses the PPARalpha fusion protein (GR-GAL4-humanPPARalpha-LBD) was isolated by selection with zeozin (0.5 mg/ml) and G418 (0.5 mg/ml).
The activity of PPARalpha agonists is determined in a 3-day assay which is described below: […]
On the technique in general: Reporter assays use an easily measured gene product as a stand-in for the process of interest.

A further test concerns the target T2, human PPARgamma (Homo sapiens, UniProt P37231).
T2 construct: human PPARgamma receptor (amino acids 1152-Y475); expressed in transfected cells; host or cells: HEK cells, transiently transfected with pcDNA3-GAL4-humanPPARgammaLBD
T2 sequence (P37231 182-477 isoform P37231-2 limits assumed): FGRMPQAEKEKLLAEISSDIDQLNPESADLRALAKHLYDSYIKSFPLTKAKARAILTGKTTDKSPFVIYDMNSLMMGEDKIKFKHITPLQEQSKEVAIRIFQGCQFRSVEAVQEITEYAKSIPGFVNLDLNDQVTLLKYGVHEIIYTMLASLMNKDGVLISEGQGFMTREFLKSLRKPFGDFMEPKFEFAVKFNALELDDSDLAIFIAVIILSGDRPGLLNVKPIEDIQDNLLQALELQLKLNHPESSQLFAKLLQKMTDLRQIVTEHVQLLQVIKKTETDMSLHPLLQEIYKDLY
Put plainly: Cellular PPARgamma assay (transiently transfected HEK cells, luciferase reporter). Format: cell-based. Conditions: HEK cells transiently transfected with GAL4-humanPPARgammaLBD, 48 h incubation. From the text:
Determination of EC50 Values of PPAR Agonists in the Cellular PPARgamma Assay
A transient transfection system is employed to determine the cellular PPARgamma activity of PPAR agonists. It is based on the use of a luciferase reporter plasmid (pGL3basic-5×GAL4-TK) and of a PPARgamma expression plasmid (pcDNA3-GAL4-humanPPARgammaLBD). Both plasmids are transiently transfected into human mbryonic kidney cells (HEK cells). There is then expression in these cells of the usion protein GAL4-humanPPARgammaLBD which binds to the GAL4 binding sites of he reporter plasmid. In the presence of a PPARgamma-active ligand, the activated usion protein GAL4-humanPPARgammaLBD induces expression of the luciferase reporter gene, which can be detected in the form of a chemiluminescence signal after addition of a luciferase substrate. As a difference from the stably transfected PPARalpha reporter cell line, in the cellular PPARgamma assay the two components (luciferase reporter plasmid and PPARgamma expression plasmid) are transiently transfected into HEK cells because stable and permanent expression of the PPARgamma fusion protein is cytotoxic.
Construction of the Plasmids
The luciferase reporter plasmid pGL3basic-5×GAL4-TK is based on the vector pGL3basic from Promega. The reporter plasmid is prepared by cloning five binding sites of the yeast transcription factor GAL4 (each binding site with the sequence 5′-CTCGGAGGACAGTACTCCG-3′), together with a 160 bp-long thymidine kinase promoter section (Genbank Accession # AF027128) 5′-upstream into pGL3basic. 3′-downstream of the thymidine kinase promoter is the complete luciferase gene from Photinus pyralis (Genbank Accession # M15077), which is already a constituent of the plasmid pGL3basic used. The cloning and sequencing of the reporter plasmid pGL3basic-5×GAL4-TK took place in analogy to the description in Sambrook J. et. al. (Molecular cloning, Cold Spring Harbor Laboratory Press, 1989).
The PPARgamma expression plasmid pcDNA3-GAL4-humanPPARgammaLBD was prepared by first cloning the cDNA coding for amino acids 1-147 of the yeast transcription factor GAL4 (Genbank Accession # P04386) into the plasmid pcDNA3 (from Invitrogen) 3′-downstream of the cytomegalovirus promoter. Subsequently, the cDNA of the ligand-binding domain (LBD) of the human PPARgamma receptor (amino acids 1152-Y475; Accession # g1480099) 3′-downstream of the GAL4 DNA binding domain was cloned. Cloning and sequencing of the PPARgamma expression plasmid pcDNA3-GAL4-humanPPARgammaLBD again took place in analogy to the description in Sambrook J. et. al. (Molecular cloning, Cold Spring Harbor Laboratory Press, 1989). Besides the luciferase reporter plasmid pGL3basic-5×GAL4-TK and the PPARgamma expression plasmid pcDNA3-GAL4-humanPPARgammaLBD, also used for the cellular PPARgamma assay are the reference plasmid pRL-CMV (from Promega) and the plasmid pBluescript SK(+) from Stratagene. All four plasmids were prepared using a plasmid preparation kit from Qiagen, which ensured a plasmid quality with a minimal endotoxin content, before transfection into HEK cells.
The activity of PPARgamma agonists is determined in a 4-day assay which is described below. Before the transfection, HEK cells are cultivated in DMEM medium (#41965-039, Invitrogen) which is mixed with the following additions: 10% FCS (#16000-044, Invitrogen), 1% penicillin-streptomycin solution (#15140-122, Invitrogen) and 2 mM L-glutamine (#25030-024, Invitrogen).
Firstly, solution A, a transfection mixture which contains all four plasmids previously described in addition to DMEM medium, is prepared. […]

Regarding `CCCC(C)(OC[C@@H]1CCC[C@H](OCc2nc(-c3cccc(OC)c3)oc2CC)C1)C(=O)O` (mixture of isomers) [Example 10, 2-{(1R,3S )-3-[5-Ethyl-2-(3-methoxyphenyl)oxazol-4-ylmethoxy]cyclohexylmethoxy}-2-methylpentanoic acid], the EC50 at human PPARalpha stood at 54 nM; at human PPARgamma, 130 nM.
In the case of `CCCC(C)(OC[C@@H]1CCC[C@H](OCc2nc(-c3ccc(C)cc3)oc2CC)C1)C(=O)O` (mixture of isomers) [Example 11, 2-[(1R,3S)-3-(5-Ethyl-2-p-tolyloxazol-4-ylmethoxy)cyclohexylmethoxy]-2-methyl-pentanoic acid], the EC50 at human PPARalpha turned out to be 4.1 nM; on human PPARgamma it was 870 nM.
On the same counts, the results for `CCCC(C)(OC[C@@H]1CCC[C@H](OCc2nc(-c3ccc(CC(C)C)cc3)oc2CC)C1)C(=O)O` (mixture of isomers) [Example 12, 2-{(1R,3S)-3-[5-Ethyl-2-(4-isobutylphenyl)oxazol-4-ylmethoxy]cyclohexylmethoxy}-2-methylpentanoic acid] are 12 nM and 75 nM.
With `CCCC(C)(OC[C@@H]1CCC[C@H](OCc2nc(-c3ccc4ccccc4c3)oc2CC)C1)C(=O)O` (mixture of isomers) [Example 13, 2-{(1R,3S)-3-[5-Ethyl-2-(naphth-2-yl)oxazol-4-ylmethoxy]cyclohexylmethoxy}-2-methylpentanoic acid], the figures for the EC50 on human PPARalpha and on human PPARgamma were 6.6 nM and 130 nM, respectively.
Take `CCCC(C)(OC[C@@H]1CCC[C@H](OCc2nc(-c3ccc(C(C)C)cc3)oc2CC)C1)C(=O)O` (mixture of isomers) [Example 14, 2-{(1R,3S)-3-[5-Ethyl-2-(4-isopropylphenyl)oxazol-4-ylmethoxy}cyclohexylmethoxy]-2-methylpentanoic acid]: the concentration giving a half-maximal response (EC50) at human PPARalpha is 0.38 nM and 0.53 nM.
With `CCCC(C)(OC[C@@H]1CCC[C@H](OCc2nc(-c3ccc4ccccc4c3)oc2C)C1)C(=O)O` (mixture of isomers) [Example 15, 2-Methyl-2-{(1R,3S)-3-[5-methyl-2-(naphth-2-yl)oxazol-4-ylmethoxy]-cyclohexylmethoxy}pentanoic acid], the values for the 50% effective concentration (EC50) on human PPARalpha and at human PPARgamma were 0.39 nM and 160 nM, respectively.
On the same counts, the results for `CCc1oc(-c2cccc(OC)c2)nc1CO[C@H]1CCC[C@@H](COC(C)(Cc2ccccc2)C(=O)O)C1` (mixture of isomers) [Example 16, 2-{(1R,3S)-3-[5-Ethyl-2-(3-methoxyphenyl)oxazol-4-ylmethoxy]cyclohexylmethoxy}-2-methyl-3-phenylpropionic acid] are 17 nM and 400 nM.
In the case of `CCc1oc(-c2ccc(C)cc2)nc1CO[C@H]1CCC[C@@H](COC(C)(Cc2ccccc2)C(=O)O)C1` (mixture of isomers) [Example 17, 2-[(1R,3S)-3-(5-Ethyl-2-p-tolyloxazol-4-ylmethoxy)cyclohexylmethoxy]-2-methyl-3-phenylpropionic acid], the EC50 on human PPARalpha was determined as 0.16 nM; at human PPARgamma it was 510 nM.
With `CCc1oc(-c2ccc(CC(C)C)cc2)nc1CO[C@H]1CCC[C@@H](COC(C)(Cc2ccccc2)C(=O)O)C1` (mixture of isomers) [Example 18, 2-{(1R,3S)-3-[5-Ethyl-2-(4-isobutylphenyl)oxazol-4-ylmethoxy]cyclohexylmethoxy}-2-methyl-3-phenylpropionic acid], the figures for the EC50 at human PPARalpha and at human PPARgamma were 2.6 nM and 150 nM, respectively.
On the same counts, the results for `CCc1oc(-c2ccc3ccccc3c2)nc1CO[C@H]1CCC[C@@H](COC(C)(Cc2ccccc2)C(=O)O)C1` (mixture of isomers) [Example 19, 2-{(1R,3S)-3-[5-Ethyl-2-(naphth-2-yl)oxazol-4-ylmethoxy]cyclohexylmethoxy}-2-methyl-3-phenylpropionic acid] are 0.38 nM and 540 nM.
Take `Cc1ccc(-c2nc(CO[C@H]3CCC[C@@H](COC(C)(C)C(=O)O)C3)c(C)o2)cc1` [*]: the concentration for a half-maximal effect (EC50) on human PPARgamma is over 10000 nM.
